What was measured:
Type in all cases: cell-based
BRAF D594G = target: T1, BRAF D594G (Homo sapiens, UniProt P15056, D594G); test: BRAF HiBiT degradation assay, C-terminal HiBiT-tagged BRAF D594G overexpressed in HCT-116 BRAF−/− cells (clone 63), Nano-Glo HiBiT Lytic assay; conditions: BRAF D594G (Class 3), HCT-116 BRAF−/− cells; for DC50: DC50 at 50% degradation; for Dmax: observed Dmax relative to DMSO control
T1 construct: Horizon Discovery (HCT-116 BRAF−/− cells); host or cells: HCT-116 BRAF−/− cells, clone 63, lentiviral transduction
T1 sequence (P15056 whole entry D594G): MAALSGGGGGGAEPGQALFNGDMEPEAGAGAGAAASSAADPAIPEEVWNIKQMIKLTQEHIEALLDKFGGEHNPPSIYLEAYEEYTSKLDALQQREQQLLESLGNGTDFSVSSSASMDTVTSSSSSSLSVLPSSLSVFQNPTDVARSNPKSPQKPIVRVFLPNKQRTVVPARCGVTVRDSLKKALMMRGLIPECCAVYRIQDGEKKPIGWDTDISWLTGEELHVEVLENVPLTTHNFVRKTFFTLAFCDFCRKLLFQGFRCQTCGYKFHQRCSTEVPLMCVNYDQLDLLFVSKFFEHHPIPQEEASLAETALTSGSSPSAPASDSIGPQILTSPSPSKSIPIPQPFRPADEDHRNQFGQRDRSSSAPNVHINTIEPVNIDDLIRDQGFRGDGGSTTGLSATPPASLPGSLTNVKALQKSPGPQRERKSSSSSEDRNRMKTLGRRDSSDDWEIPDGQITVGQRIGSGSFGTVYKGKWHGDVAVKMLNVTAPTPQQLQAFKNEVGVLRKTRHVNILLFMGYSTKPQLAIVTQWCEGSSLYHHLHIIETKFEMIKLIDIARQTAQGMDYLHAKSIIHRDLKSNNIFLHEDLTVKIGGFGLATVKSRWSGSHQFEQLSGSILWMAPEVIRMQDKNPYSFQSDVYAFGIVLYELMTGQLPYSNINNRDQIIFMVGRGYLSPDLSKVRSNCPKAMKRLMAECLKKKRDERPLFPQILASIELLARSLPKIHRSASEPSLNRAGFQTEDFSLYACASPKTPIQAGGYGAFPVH
Outline: (§1)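 Degradation assay in HCT-116 BRAF−/− cells carrying lentiviral HiBiT-tagged mutant BRAF. The readout is % protein remaining across 1 μM to 0.01 nM compound, and DC50 marks 50% remaining.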

BRAF V600E = target: T2, BRAF V600E (Homo sapiens, UniProt P15056, V600E); test: BRAF HiBiT degradation assay, C-terminal HiBiT-tagged BRAF V600E A375 cells (clone 1F10), Nano-Glo HiBiT Lytic assay; conditions: A375 (BRAF V600E, Class 1); for DC50: DC50 at 50% degradation; for Dmax: A-375, observed Dmax, % protein degraded relative to DMSO control
T2 construct: endogenous C-terminal HiBiT fusion tag on BRAF V600E allele; endogenous in cells; host or cells: A375 clone 1F10 (CRISPR-Cas9 knock-in of the HiBiT tag; parental A375 from ATCC)
T2 sequence (P15056 whole entry V600E, the tested form may be a part): as the sequence (P15056 whole entry D594G) above, with G594D, V600E counted along it
Outline: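 Using CRISPR-engineered A375 cells that carry a C-terminal HiBiT tag on endogenous BRAF V600E, remaining protein was quantified by lytic luminescence relative to DMSO-treated cells, with wildtype A375 as the background control. DC50 denotes the concentration giving 50% degradation.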

BRAF G466V = target: T3, BRAF G466V (Homo sapiens, UniProt P15056, G466V); test: BRAF HiBiT degradation assay, C-terminal HiBiT-tagged BRAF G466V overexpressed in HCT-116 BRAF−/− cells (clone 8), Nano-Glo HiBiT Lytic assay; conditions: BRAF G466V (Class 3), HCT-116 BRAF−/− cells; for DC50: DC50 at 50% degradation; for Dmax: observed Dmax relative to DMSO control
T3 construct: Horizon Discovery (HCT-116 BRAF−/− cells); host or cells: HCT-116 BRAF−/− cells, clone 8, lentiviral transduction
T3 sequence (P15056 whole entry G466V): as the sequence (P15056 whole entry D594G) above, with G466V, G594D counted along it
Outline: as §1

BRAF G469A = target: T4, BRAF G469A (Homo sapiens, UniProt P15056, G469A); test: BRAF HiBiT degradation assay, C-terminal HiBiT-tagged BRAF G469A overexpressed in HCT-116 BRAF−/− cells (clone 34), Nano-Glo HiBiT Lytic assay; conditions: BRAF G469A (Class 2), HCT-116 BRAF−/− cells; for DC50: DC50 at 50% degradation; for Dmax: observed Dmax relative to DMSO control
T4 construct: Horizon Discovery (HCT-116 BRAF−/− cells); host or cells: HCT-116 BRAF−/− cells, clone 34, lentiviral transduction
T4 sequence (P15056 whole entry G469A): as the sequence (P15056 whole entry D594G) above, with G469A, G594D counted along it
Outline: as §1

| Compound | DC50 (BRAF D594G) [nM] | Dmax (BRAF D594G) [%] | DC50 (BRAF V600E) [nM] | Dmax (BRAF V600E) [%] | DC50 (BRAF G466V) [nM] | Dmax (BRAF G466V) [%] | DC50 (BRAF G469A) [nM] | Dmax (BRAF G469A) [%] |
| --- | --- | --- | --- | --- | --- | --- | --- | --- |
| CCN(C)S(=O)(=O)Nc1cc(Cl)cc(-c2cn(-c3ccc(N4CCN(CC5CCN(c6ccc(N7CCC(=O)NC7=O)cc6)CC5)CC4)cn3)nc2-c2ccncc2)c1F [Compound 311, 1-(4-{4-[(4-{6-[4-(5-chloro-3-{[ethyl(methyl)sulfamoyl]amino}-2-fluorophenyl)-3-(pyridin-4-yl)-1H-pyrazol-1-yl]pyridin-3-yl}piperazin-1-yl)methyl]piperidin-1-yl}phenyl)-1,3-diazinane-2,4-dione] | 10 to 50 | 30 to 70 | 10 to 50 | > 70 | 50 to 500 | 30 to 70 | > 500 | 30 to 70 |
| C[C@@H]1CN(c2ccc(-n3cc(-c4cc(Cl)cc(NS(=O)(=O)N5CCCC5)c4F)c(-c4ccncc4)n3)cc2)CCN1CC1CCN(c2ccc([C@H]3CCC(=O)NC3=O)cc2)CC1 [Compound 316, N-[5-chloro-3-(1-{4-[(3R)-4-[(1-{4-[(3R)-2,6-dioxopiperidin-3-yl]phenyl}piperidin-4-yl)methyl]-3-methylpiperazin-1-yl]phenyl}-3-(pyridin-4-yl)-1H-pyrazol-4-yl)-2-fluorophenyl]pyrrolidine-1-sulfonamide] | < 10 | 30 to 70 | < 10 | > 70 | < 10 | > 70 | 10 to 50 | > 70 |
| C[C@@H]1CN(c2ccc(-n3cc(-c4cc(Cl)cc(NS(=O)(=O)N5CC[C@@H](F)C5)c4F)c(-c4ccncc4)n3)cc2)CCN1CC1CCN(c2ccc([C@H]3CCC(=O)NC3=O)cc2)CC1 [Compound 317, (3R)—N-[5-chloro-3-(1-{4-[(3R)-4-[(1-{4-[(3R)-2,6-dioxopiperidin-3-yl]phenyl}piperidin-4-yl)methyl]-3-methylpiperazin-1-yl]phenyl}-3-(pyridin-4-yl)-1H-pyrazol-4-yl)-2-fluorophenyl]-3-fluoropyrrolidine-1-sulfonamide] | < 10 | 30 to 70 | < 10 | > 70 | < 10 | > 70 | < 10 | > 70 |
| C[C@@H]1CN(c2ccc(-n3cc(-c4cc(Cl)cc(NS(=O)(=O)N5CCCC5)c4F)c(-c4ccncc4)n3)cc2)CCN1CC1CCN(c2ccc(N3CCC(=O)NC3=O)cc2)CC1 [Compound 319, N-[5-chloro-3-(1-{4-[(3R)-4-({1-[4-(2,4-dioxo-1,3-diazinan-1-yl)phenyl]piperidin-4-yl}methyl)-3-methylpiperazin-1-yl]phenyl}-3-(pyridin-4-yl)-1H-pyrazol-4-yl)-2-fluorophenyl]pyrrolidine-1-sulfonamide] | < 10 | 30 to 70 | < 10 | > 70 | < 10 | > 70 | 50 to 500 | 30 to 70 |
| C[C@@H]1CN(c2ccc(-n3cc(-c4cc(Cl)cc(NS(=O)(=O)N5CC[C@@H](F)C5)c4F)c(-c4ccncc4)n3)nc2)CCN1CC1CCN(c2ccc([C@H]3CCC(=O)NC3=O)cc2)CC1 [Compound 320, (3R)—N-[5-chloro-3-(1-{5-[(3R)-4-[(1-{4-[(3R)-2,6-dioxopiperidin-3-yl]phenyl}piperidin-4-yl)methyl]-3-methylpiperazin-1-yl]pyridin-2-yl}-3-(pyridin-4-yl)-1H-pyrazol-4-yl)-2-fluorophenyl]-3-fluoropyrrolidine-1-sulfonamide] | < 10 | > 70 | < 10 | > 70 | < 10 | > 70 | < 10 | > 70 |
| C[C@@H]1CN(c2ccc(-n3cc(-c4cc(Cl)cc(NS(=O)(=O)N5CC[C@@H](F)C5)c4F)c(-c4ccncc4)n3)nc2)CCN1CC1CCN(c2ccc(N3CCC(=O)NC3=O)cc2)CC1 [Compound 322, (3R)—N-[5-chloro-3-(1-{5-[(3R)-4-({1-[4-(2,4-dioxo-1,3-diazinan-1-yl)phenyl]piperidin-4-yl}methyl)-3-methylpiperazin-1-yl]pyridin-2-yl}-3-(pyridin-4-yl)-1H-pyrazol-4-yl)-2-fluorophenyl]-3-fluoropyrrolidine-1-sulfonamide] | < 10 | 30 to 70 | < 10 | > 70 | < 10 | 30 to 70 | 50 to 500 | 30 to 70 |
| C[C@@H]1CN(c2ccc(-n3cc(-c4cc(Cl)cc(NS(=O)(=O)N5CCCC5)c4F)c(-c4ccncc4)n3)nc2)CCN1CC1CCN(c2ccc(N3CCC(=O)NC3=O)cc2)CC1 [Compound 324, N-[5-chloro-3-(1-{5-[(3R)-4-({1-[4-(2,4-dioxo-1,3-diazinan-1-yl)phenyl]piperidin-4-yl}methyl)-3-methylpiperazin-1-yl]pyridin-2-yl}-3-(pyridin-4-yl)-1H-pyrazol-4-yl)-2-fluorophenyl]pyrrolidine-1-sulfonamide] | < 10 | 30 to 70 | < 10 | > 70 | < 10 | 30 to 70 | 50 to 500 | 30 to 70 |

More lines, now with the values ahead:

| DC50 (BRAF D594G) [nM] | Dmax (BRAF D594G) [%] | DC50 (BRAF V600E) [nM] | Dmax (BRAF V600E) [%] | DC50 (BRAF G466V) [nM] | Dmax (BRAF G466V) [%] | DC50 (BRAF G469A) [nM] | Dmax (BRAF G469A) [%] | Compound |
| --- | --- | --- | --- | --- | --- | --- | --- | --- |
| < 10 | > 70 | < 10 | > 70 | 10 to 50 | > 70 | 10 to 50 | 30 to 70 | CCN(C)S(=O)(=O)Nc1cc(Cl)cc(-c2cn(-c3ccc(N4CCN(CC5CCN(c6ccc([C@H]7CCC(=O)NC7=O)cc6)CC5)CC4)cn3)nc2-c2ccncc2)c1F [Compound 310, (3R)-3-(4-{4-[(4-{6-[4-(5-chloro-3-{[ethyl(methyl)sulfamoyl]amino}-2-fluorophenyl)-3-(pyridin-4-yl)-1H-pyrazol-1-yl]pyridin-3-yl}piperazin-1-yl)methyl]piperidin-1-yl}phenyl)piperidine-2,6-dione] |
| < 10 | 30 to 70 | 10 to 50 | > 70 | 10 to 50 | > 70 | 50 to 500 | 30 to 70 | CCN(C)S(=O)(=O)Nc1cc(Cl)cc(-c2cn(-c3ccc(N4CCN(CC5CCN(c6ccc(N7CCC(=O)NC7=O)cn6)CC5)CC4)cn3)nc2-c2ccncc2)c1F [Compound 313, 1-(6-{4-[(4-{6-[4-(5-chloro-3-{[ethyl(methyl)sulfamoyl]amino}-2-fluorophenyl)-3-(pyridin-4-yl)-1H-pyrazol-1-yl]pyridin-3-yl}piperazin-1-yl)methyl]piperidin-1-yl}pyridin-3-yl)-1,3-diazinane-2,4-dione] |
| < 10 | > 70 | < 10 | > 70 | 10 to 50 | > 70 | 10 to 50 | 30 to 70 | CCN(C)S(=O)(=O)Nc1cc(Cl)cc(-c2cn(-c3ccc(N4CCN(CC5CCN(c6ccc([C@H]7CCC(=O)NC7=O)cn6)CC5)CC4)cn3)nc2-c2ccncc2)c1F [Compound 314, (3R)-3-(6-{4-[(4-{6-[4-(5-chloro-3-{[ethyl(methyl)sulfamoyl]amino}-2-fluorophenyl)-3-(pyridin-4-yl)-1H-pyrazol-1-yl]pyridin-3-yl}piperazin-1-yl)methyl]piperidin-1-yl}pyridin-3-yl)piperidine-2,6-dione] |
| < 10 | 30 to 70 | < 10 | > 70 | < 10 | > 70 | 10 to 50 | 30 to 70 | C[C@@H]1CN(c2ccc(-n3cc(-c4cc(Cl)cc(NS(=O)(=O)N5CC[C@@H](F)C5)c4F)c(-c4ccncc4)n3)cc2)CCN1CC1CCN(c2ccc(N3CCC(=O)NC3=O)cc2)CC1 [Compound 315, (3R)—N-[5-chloro-3-(1-{4-[(3R)-4-({1-[4-(2,4-dioxo-1,3-diazinan-1-yl)phenyl]piperidin-4-yl}methyl)-3-methylpiperazin-1-yl]phenyl}-3-(pyridin-4-yl)-1H-pyrazol-4-yl)-2-fluorophenyl]-3-fluoropyrrolidine-1-sulfonamide] |

— patent US20260317324A1, “BIFUNCTIONAL COMPOUNDS FOR DEGRADING BRAF VIA UBIQUITIN PROTEOSOME PATHWAY” (Nurix Therapeutics, Inc., priority 2023, published 2026)
